“Also recorded” adds a separate entry of the source.
Experiments:
Format in all cases: cell-based, human
[1] = tested on: protein expression of the corresponding knockdown genes in A549 cells; assay: Western blot of knockdown genes after lipid-mediated siRNA delivery into A549 cells; conditions: LAMP2, XPN2, Ssu72, CPSF4 or β-actin siRNA 400 nM; reverse evaporation method; FIG. 82
Description: 3.3.1 MRC-5 cell (pulmonary embryonic fibroblast), and A549 cell (human lung adenocarcinoma cell) were cultured to logarithmic growth phase, and then plated into 12-well plates at a cell density of 6×10^5/1 mL medium/well; MRC-5 cells were cultured in Eagle's MEM medium (MEM, Gibco); A549 cells were cultured in Ham's F-12 medium (HyClone); followed by incubation overnight at 37° C., and the follow-up experiments were performed after the cells were attached to the walls.
4) Lipid nucleic acid mixture: the mixture of lipid and nucleic acid prepared from the step 2 were added into cells and mixed, and the final concentration of nucleic acid was 400 nM.
3.3.3 After 24 hours of treatment, the cells were stimulated with the stimulant (1 μg/mL poly (I:C) (P1530, Sigma-Aldrich) as double-stranded RNA viruses mimetics) or 3 ng/mL transforming growth factor TGFβ1 (Pepro Tech)). […]

A549 cell = assay: RT-qPCR detection of nucleic acid delivered by lipid into A549 cells; conditions: RNA 100 nM; for delivery of double-stranded HJT-sRNA-m7 by single lipid (real-time PCR): 12 hours
A549 cells = assay: Flow cytometry detection of the efficiency of nucleic acid delivery by lipid; conditions: PGY-sRNA-6-FAM, boiling method
Description: Experimental materials: A549 cells (purchased from the Cell Center of the Chinese Academy of Medical Sciences), FAM-sRNA (purchased from Ribobio Biotechnology Co., Ltd.), lipid No. 41, Accuri® C6 instrument (purchased from BD, USA).
Experimental methods: PGY-sRNA-6-FAM was dissolved in 100 μl water, mixed with 4 μl lipid, and prepared by boiling method. Then the mixture was dropped into A549 cells, and after 6 hours of co-incubation, the samples were collected for detection as follows: firstly wash three times with PBS, then digest with trypsin for 3 minutes and remove trypsin, wash with PBS again and then blow down the cells. The detection was performed using Accuri® C6 instrument.
Experimental Method: PGY-sRNA-6-FAM was dissolved in 100 μl water, and mixed with 4 μl lipid, and prepared into lipid-sRNA mixture by boiling method. Then, the mixture was dropped into A549 cells, and after 6 hours of co-incubation, the samples were collected and washed three times with PBS, then digested with trypsin into single cells, washed with re-suspended with PBS and then blown down for Accuri® C6 instrument detection.
Experimental Method: FAM-sRNA was dissolved in 100 μl water, and mixed with 4 μl lipid, prepared by boiling method. Then, the lipid-sRNA mixture was dropped into A549 cells, and after 6 hours of co-incubation, the samples were collected and washed three times with PBS, then digested into single cells with trypsin, re-suspended with PBS and then blown down for Accuri® C6 instrument detection.

[2] = 4 μl lipid, 6 hours of co-incubation

CCCCCCCCCCCCCCCCCCC[C@@H](O)[C@@H](N)CO [No. 41, Sphinganine (d22:0)]
protein knockdown effect (Western blot) [1]: significantly higher than the inhibitory effect of HJT-sRNA-m7 mediated by RNAiMAX | delivery of double-stranded HJT-sRNA-m7 by single lipid (real-time PCR) (A549 cell; boiling (heating) method, 2.5 μL single lipid): delivered HJT-sRNA-m7 double-stranded RNA into A549 cells; also recorded: about twice that of RNAiMAX | delivery of single-stranded HJT-sRNA-m7 by single lipid (real-time PCR) (A549 cell; boiling (heating) method, 12 hours (No. 37: 3 hours)): delivered HJT-sRNA-m7 single-stranded RNA into A549 and MRC-5 cells | delivery of double-stranded HJT-sRNA-m7 by single lipid (real-time PCR) (A549 cell; reverse evaporation method): delivered HJT-sRNA-m7 double-stranded RNA into A549 cells; also recorded: significantly higher than that of RNAiMAX | efficiency in delivering PGY-sRNA-6 double-stranded RNA (flow cytometry) (A549 cells; [2]): 96.7% | efficiency in delivering PGY-sRNA-6 single-stranded RNA (flow cytometry) (A549 cells; [2]): 94.1% | efficiency of nucleic acid delivery by flow cytometry, in words (A549 cells; 6 hours): could efficiently deliver single-stranded and double-stranded nucleic acids into A549 cells

Source: patent US20210108198A1, “APPLICATION OF COMPOUND OR TRADITIONAL CHINESE MEDICINE EXTRACT IN PREPARATION OF NUCLEIC ACID DELIVERY AGENT AND RELATED PRODUCTS THEREOF” (INSTITUTE OF BASIC MEDICAL SCIENCES CHINESE ACADEMY OF …, priority 2017, published 2021)
